These are literature values, as cited in patent US20220370535A1, “ANTIVIRAL ESSENTIAL OIL COMPOSITIONS” (priority 2020, published 2022).

One data set deals with SARS-CoV-2. The settings on record: inhibition of the virus in cell-based assay.
Another data set deals with SARS-CoV-2, Mpro (Severe acute respiratory syndrome coronavirus 2, UniProt P0DTD1). The settings on record: nelfinavir, pitavastatin, perampanel, praziquantel compared.

Molecules are shown by their SMILES.

The term EC50 denotes the concentration that produces a half-maximal response. `CCN(CC)CCCC(C)Nc1ccnc2cc(Cl)ccc12` (centres unmarked) [chloroquine]: the EC50 in the data set on SARS-CoV-2 is 1130 nM.

`Cc1c(O)cccc1C(=O)N[C@@H](CSc1ccccc1)[C@H](O)CN1C[C@H]2CCCC[C@H]2C[C@H]1C(=O)NC(C)(C)C` [nelfinavir]: on SARS-CoV-2, Mpro, the “inhibitor ranking among 4 tested drugs” value was “most potential inhibitor”.
